Patent EP0162545A2, “Enhanced bioconversion processes” (BETZ EUROPE, INC., priority 1984, dated 1985)
Like-named read-outs stand apart in the source and are kept apart here.

System: E. coli K12 ATCC 25404
Test: Continuous culture (chemostat) biomass yield
Type: cell-based, Escherichia coli
Conditions: for inhibition of growth at 5 ppm / inhibition of growth at 2 ppm / inhibition of growth at 1 ppm: Escherichia coli, read-out: % From Control
Experimental: Biomass determinations were by Millipore Filtration using Millipore type H.A. 0.45 µ filters. Samples were centrifuged @ 15,000 x for 10 min., supernatant was filtered through a dried and preweighed filter. The centrifuged pellet was then vortexed in 2 mL of D.I. water and filtered also. Samples were then dried overnight @ 105°C and re-weighed. Biomass was the weight of the dried filter less the tared filter weight.
Glucose determinations were carried out on the centrifuged reactor sample supernatants using glucose enzymatic assay (hexokinase and glucose 6-phosphate dehydrogenase) UV-15 Sigma Chemical Co., St. Louis, MO. (Assay set-up pamphlet accompanies kit). Spectrophotometric measurements were run on a Zeiss PM-6 Spektralphotometer, Carl Zeiss, 7082 Oberkochen, West Germany.
Continuous culture medium was composed of 5 g/1 glucose, 40 mL/1 25 X VBE, and 2.5 mL/1 trace mixture. Bulk medium composed of deionized H20 plus 25X VBE was steam sterilized for 45 min. @ 121°C. Trace mix was autoclaved separately and added aseptically. Glucose was filter sterilized and added last (aseptically).
Bioflo Model C32 Chemostat units (bioreactors) , New Brunswick Scientific, Edison NJ, with a working volume of 1400 mL were utilized for the continuous culture experimentation. pH control on the systems was maintained by Model 5997-20 Horizon pH Controllers. Ingold Sterilizable pH Electrodes, Type 465-35-K9, Andover, MA, were sterilized in place before each run. pH adjustment was by controller addition of sterile 2N NaOH upon demand.
Sterile chemostats vessels were filled to working volume with media seeded with 10 mL of 48 hr. E. coli K12 ATCC 25404 culture grown up overnight in nutrient broth (BBL, Cockeysville, MD) @ 37°C. Reactors were run for 72 hours in the batch mode @ 37°C, and then put into continuous flow. The reactors were run for a minimum of five reactor turnovers before initial sampling to insure a steady state. Sampling was then conducted at a maximum of once/reactor turnover, with a minimum number of 11 reactor turnovers per chemostat run. Both control and BNS containing chemostats were stripped, cleaned and the E. coli culture reestablished (as above) each time before either the BNS concentration or the dilution rate was increased. Eleven reactor turnovers is equivalent to 3.5 days at the highest dilution rate used (minimum time for a chemostat run). Uncoupler Addition to Continuous Culture
BNS stock was composed of 10% BNS, 5% Triton X-114 and 85% carbitol acetate. BNS was diluted in deionized water to the appropriate 10X concentration desired. Breakdown kinetics were measured in a deionized H20/BNS system by spectrophotometric measurement at 320 nm and a BNS half life was determined to be 7 hours. Continuous and separate pumping of uncoupler was by a Masterflex 7552-10 peristalic pump (Cole Parmer, Chicago, IL) through silicon tubing lines into the bioreactor. Feed flow was split 90% organic feed, 10% BNS feed for total flow. New uncoupler feed was made up daily from the previously mentioned stock, since there was only 10% of the original BNS concentration left before the new daily solution of BNS feed was begun. BNS dose of 1, 2 and 5 ppm was based on the total bulk feed. Reservoir solutions were mixed constantly on a Fisher versamix magnetic stir plate at a speed of 0.4/1.0 to prevent settling out of chemical.
Chemostat system parameters were set at pH - 7.0, temper, ature 37°C, aeration 2.0 standard litres per minute (SLPM) and agitation at 300 rpm for all experimentation.
Daily checks were made on system for pH, media flow, NaOH consumption, BNS flow, temperature; agitation speed and aeration rate. Mixed liquor glucose and gravimetric biomass determinations were performed at least 5 times per week. Periodic checks were also made on the organic strength of the influent medium, depending on the frequency of new media make-up.

O=[N+]([O-])C(Br)=Cc1ccccc1 [BNS, beta-bromo-beta-nitrostyrene]
Biomass Yield (1.0 ppm BNS, Dilution Rate 0.068 hr.^-1): 0.268 g cells/g substrate | Biomass Yield (1.0 ppm BNS, Dilution Rate 0.086 hr.^-1): 0.276 g cells/g substrate | Biomass Yield (1.0 ppm BNS, Dilution Rate 0.132 hr.^-1): 0.324 g cells/g substrate | Biomass Yield (2.0 ppm BNS, Dilution Rate 0.066 hr.^-1): 0.273 g cells/g substrate | Biomass Yield (2.0 ppm BNS, Dilution Rate 0.090 hr.^-1): 0.241 g cells/g substrate | Biomass Yield (2.0 ppm BNS, Dilution Rate 0.130 hr.^-1): 0.275 g cells/g substrate | Biomass Yield (5.0 ppm BNS, Dilution Rate 0.070 hr.^-1): 0.287 g cells/g substrate | Biomass Yield (5.0 ppm BNS, Dilution Rate 0.090 hr.^-1): 0.237 g cells/g substrate | Biomass Yield (5.0 ppm BNS, Dilution Rate 0.131 hr.^-1): 0.298 g cells/g substrate | inhibition of growth at 5 ppm (ATCC25404, 0.07 h, 5.0 ppm BNS, Dilution Rate 0.070 hr.^-1): 9.5% | inhibition of growth at 2 ppm (ATCC25404, 0.09 h, 2.0 ppm BNS, Dilution Rate 0.090 hr.^-1): 26.1% | inhibition of growth at 5 ppm (ATCC25404, 0.09 h, 5.0 ppm BNS, Dilution Rate 0.090 hr.^-1): 27.3% | inhibition of growth at 2 ppm (ATCC25404, 0.13 h, 2.0 ppm BNS, Dilution Rate 0.130 hr.^-1): 18.3% | inhibition of growth at 1 ppm (ATCC25404, 1.0 ppm BNS, Dilution Rate 0.068 hr.^-1): 15.2% | inhibition of growth at 1 ppm (ATCC25404, 1.0 ppm BNS, Dilution Rate 0.086 hr.^-1): 15% | inhibition of growth at 1 ppm (ATCC25404, 1.0 ppm BNS, Dilution Rate 0.132 hr.^-1): 3.9% | inhibition of growth at 2 ppm (ATCC25404, 2.0 ppm BNS, Dilution Rate 0.066 hr.^-1): 13.3% | inhibition of growth at 5 ppm (ATCC25404, 5.0 ppm BNS, Dilution Rate 0.131 hr.^-1): 11.5%
